The text below walks through data of ChEMBL document CHEMBL3414470, “Synthesis and biological evaluation of 4-oxycoumarin derivatives as a new class of antifilarial agents” (Eur J Med Chem, 2015).

The test system of data set [1] is Brugia malayi. Briefly: Antifilarial activity against Brugia malayi adult worm assessed as reduction in motility after 5 days by MTT dye reduction assay. Format: functional, organism-based. For orientation: Formazan colour is commonly taken as a measure of viable cells.
Data set [2] deals with Brugia malayi. Briefly: Antifilarial activity against Brugia malayi microfilaria assessed as reduction in motility after 5 days by MTT dye reduction assay. It is filed as functional, organism-based.
Another data set concerns Vero. Briefly: (§1) Cytotoxicity against African green monkey Vero cells after 72 hrs by resazurin dye-based fluorescence assay. Format: cell-based. Conditions: chlorocebus sabaeus, vero, 72 h.
The test system of data set [3] is Brugia malayi. Briefly: Antifilarial activity against Brugia malayi adult worm assessed as reduction in motility at 5 uM after 5 days by MTT dye reduction assay. It is filed as functional. Conditions: 120 h.
Data set [4] relates to Brugia malayi. The data set can be described thus: Antifilarial activity against Brugia malayi adult worm assessed as reduction in motility at 10 uM after 5 days by MTT dye reduction assay. It is filed as functional, organism-based.
The subject of data set [5] is Brugia malayi. The data set can be described thus: Antifilarial activity against Brugia malayi microfilaria assessed as reduction in motility at 5 uM after 5 days by MTT dye reduction assay. Format: functional. The conditions noted are these: 120 h.
Data set [6] deals with Brugia malayi. The data set can be described thus: Antifilarial activity against Brugia malayi microfilaria assessed as reduction in motility at 10 uM after 5 days by MTT dye reduction assay. It is filed as functional, organism-based.
Data set [7] concerns Brugia malayi. The data set can be described thus: Antifilarial activity against Brugia malayi adult worm infected in jird model assessed as adulticidal activity at 100 mg/kg, sc after 5 days measured till day 45 relative to control. Format: functional. Conditions: route subcutaneous.
Data set [8] deals with Brugia malayi. The data set can be described thus: Antifilarial activity against Brugia malayi adult worm infected in jird model assessed as sterile female at 100 mg/kg, sc after 5 days measured till day 45 relative to control. Format: functional. The conditions noted are these: route subcutaneous.
Data set [9] concerns Brugia malayi. Briefly: Antifilarial activity against Brugia malayi microfilariae infected in jird model assessed as microfilaricidal activity at 100 mg/kg, sc after 5 days measured till day 45 relative to control. Format: functional. The conditions noted are these: route subcutaneous.
The test system of data set [10] is Brugia malayi. The data set can be described thus: Antifilarial activity against Brugia malayi adult worm assessed as reduction in motility at 2.5 uM after 5 days by MTT dye reduction assay. It is filed as functional. Conditions: 120 h.
Data set [11] has as its system Brugia malayi. Briefly: Antifilarial activity against Brugia malayi adult worm assessed as reduction in motility at 1.25 uM after 5 days by MTT dye reduction assay. Format: functional. The conditions noted are these: 120 h.
Data set [12] deals with Brugia malayi. The data set can be described thus: Antifilarial activity against Brugia malayi adult worm assessed as reduction in motility at 0.625 uM after 5 days by MTT dye reduction assay. It is filed as functional. Conditions: 120 h.
The subject of data set [13] is Brugia malayi. The data set can be described thus: Antifilarial activity against Brugia malayi adult worm assessed as reduction in motility at 0.312 uM after 5 days by MTT dye reduction assay. It is filed as functional. Conditions: 120 h.
Data set [14] has as its system Brugia malayi. Briefly: Antifilarial activity against Brugia malayi microfilaria assessed as reduction in motility at 2.5 uM after 5 days by MTT dye reduction assay. Format: functional. Conditions: 120 h.
Data set [15] relates to Brugia malayi. The data set can be described thus: Antifilarial activity against Brugia malayi microfilaria assessed as reduction in motility at 1.25 uM after 5 days by MTT dye reduction assay. Format: functional. Conditions: 120 h.
The subject of data set [16] is Brugia malayi. Briefly: Antifilarial activity against Brugia malayi microfilaria assessed as reduction in motility at 0.625 uM after 5 days by MTT dye reduction assay. Format: functional. Conditions: 120 h.
Data set [17] deals with Brugia malayi. Briefly: Antifilarial activity against Brugia malayi microfilaria assessed as reduction in motility at 0.312 uM after 5 days by MTT dye reduction assay. It is filed as functional. Conditions: 120 h.
Data set [18] can be described thus: Selectivity index, ratio of CC50 for African green monkey Vero cells to IC50 for Brugia malayi adult worm. Format: functional.
Data set [19] in a line: Selectivity index, ratio of CC50 for African green monkey Vero cells to IC50 for Brugia malayi microfilaria. Format: functional.
A short description of data set [20]: as §1. It is filed as cell-based. The conditions noted are these: chlorocebus sabaeus, Vero cells.

In brackets after ≈: the same amount, converted by molar mass. Activity calls are given as the source filed them. The rule behind the calls is not given here. A value given as a limit tells only on which side of the number the result lay.

For orientation: IC50 means the midpoint of a concentration-inhibition curve. The CC50 is the concentration that lowers cell viability or growth by half. What is called inhibition is the change of the read-out against control, counted positive when it falls.

As for IVERMECTIN, the figures for the concentration for half-maximal inhibition (IC50) in the data set with Brugia malayi [1] and in the data set on Brugia malayi [2] were 1800 nM and 4000 nM, respectively. Further, the midpoint of cytotoxicity with Vero, the CC50, lay at 53200 nM.
Take `O=c1cc(OCC(O)CN2CCOCC2)c2ccccc2o1` (stereo not drawn): the values for the inhibition at 5 µM in the data set with Brugia malayi [3] and in the data set on Brugia malayi [5] were 20.1% and 1%, respectively. In addition, the result with Brugia malayi [4] and with Brugia malayi [6] was inactive. The MIC result in the data set on Brugia malayi [1] and in the data set on Brugia malayi [2] was “inactive” throughout.
For `O=c1cc(OCC(O)CN2CCCCC2)c2ccccc2o1` (stereo not drawn), the figures for the inhibition at 5 µM in the data set on Brugia malayi [3] and with Brugia malayi [5] were 23.7% and 1%, respectively. The result with Brugia malayi [4] and in the data set on Brugia malayi [6] was inactive. The MIC result in the data set on Brugia malayi [1] and with Brugia malayi [2] was “inactive” in each case.
For `CCN(CC)C(=O)N1CCN(C)CC1` [DIETHYLCARBAMAZINE], the MIC result in the data set with Brugia malayi [1] and in the data set with Brugia malayi [2] was “inactive” each time. Besides, the results for the Activity in the data set with Brugia malayi [7], in the data set on Brugia malayi [8] and with Brugia malayi [9] were 33.3%, 0% and 39.5%, respectively.
For the compound `O=c1cc(OCC(O)CNC2CCCCC2)c2ccccc2o1` (stereo not drawn), the inhibition at 2.5 µM was 92% in the data set with Brugia malayi [10] and 100% with Brugia malayi [14]. Also, the results for the inhibition at 1.25 µM in the data set with Brugia malayi [11] and in the data set on Brugia malayi [15] were 47% and 100%, respectively. For the same compound, the inhibition at 0.625 µM came out at 24.2% in the data set on Brugia malayi [12] and 50% in the data set on Brugia malayi [16]. Also, the inhibition at 0.312 µM was determined as 16.2% in the data set on Brugia malayi [13] and 50% in the data set with Brugia malayi [17]. Moreover, the IC50 in the data set on Brugia malayi [1] (Brugia malayi, 120 h) was determined as 360 nM; in the data set with Brugia malayi [2] (Brugia malayi, 120 h), 260 nM. The MIC with Brugia malayi [1] (Brugia malayi, 120 h) came out at 2.5 µM (≈ 0.793 µg/mL); in the data set on Brugia malayi [2] (Brugia malayi, 120 h), 2.5 µM (≈ 0.793 µg/mL). Also, the “Ratio CC50/IC50” value in [18] is on record as more than 277.7; in data set [19] it was more than 384.6. The CC50 at 72 h in data set [20] was more than 100000 nM. Besides, the Activity in the data set with Brugia malayi [7] stood at 66.6%; in the data set on Brugia malayi [8], 0%; with Brugia malayi [9], 31.8%.
As to `Cc1ccc(NCC(O)COc2cc(=O)oc3ccccc23)cc1` (stereo not drawn), the inhibition at 5 µM was 78.9% with Brugia malayi [3] and 100% in the data set on Brugia malayi [5]. Further, the inhibition at 2.5 µM amounted to 38.6% in the data set with Brugia malayi [10] and 75% in the data set with Brugia malayi [14]. Also, the inhibition at 1.25 µM with Brugia malayi [11] was determined as 12.8%; with Brugia malayi [15], 75%. Besides, the inhibition at 0.625 µM is 8.9% with Brugia malayi [12] and 75% in the data set with Brugia malayi [16]. Besides, the inhibition at 0.312 µM with Brugia malayi [13] amounted to 9.6%; with Brugia malayi [17] it was 75%. Also, the IC50 is 1380 nM with Brugia malayi [1] (Brugia malayi, 120 h) and 180 nM in the data set on Brugia malayi [2] (Brugia malayi, 120 h). The MIC with Brugia malayi [1] (Brugia malayi, 120 h) is 5 µM (≈ 1.63 µg/mL); in the data set with Brugia malayi [2] (Brugia malayi, 120 h), 2.5 µM (≈ 0.813 µg/mL). Besides, the figures for the “Ratio CC50/IC50” value in [18] and in data set [19] were more than 72.4 and more than 555.5, respectively. In data set [20], the CC50 at 72 h was more than 100000 nM. Moreover, the Activity with Brugia malayi [7] is 24.8%; in the data set on Brugia malayi [8], 0%; with Brugia malayi [9] it was 31.7%.
